# Source: patent publication US4500520A, “Antiinflammatory and/or analgesic silylfurans” (E. I. Du Pont de Nemours and Company, priority 1983, dated 1985)
# Read-outs that look alike come from different tables or passages of the source.
# Columns and labels:
# [1] = tested on: adjuvant-induced arthritis (paw volume, uninjected left hind paw); assay: Established adjuvant-induced arthritis in rats; format: in vivo, rat (male Charles River Lewis); details: for ED50: Rattus norvegicus, read-out: Adjuvant Arthritis ED50; for Adjuvant Arthritis, percent reduction in paw volume at the indicated dose: at 27 mg/kg
# [2] = tested on: phenylquinone-induced writhing; assay: Phenylquinone writhing test; format: in vivo, mouse (female white); details: Mus musculus, read-out: Phenylquinone Writhing (PQW) ED50
# Procedure: PHENYLQUINONE WRITHING TEST
# A standard procedure for detecting and comparing the analgesic activity of compounds in this series for which there is a good correlation with human efficacy is the standard phenylquinone writhing test modified from Siegmund, et al., Proc. Soc. Exp. Biol. Med., 95, 729 (1957). A test compound suspended in 1% methylcellulose was given orally to fasted (17-21 hours) female white mice, 5-20 animals per double blind test. Aqueous (0.01% phenyl-p-benzoquinone) phenylquinone, 0.20 ml per mouse, was injected intraperitoneally 6 minutes before observations were begun. […] The effective analgesic dose for 50% of the mice (ED50) was calculated by the moving average method of Thompson, W. R., Bact. Rev., 11, 115-145 (1947); the time of peak activity was determined for many of the compounds. Data for some of the compounds are summarized in Table II together with data for some standard analgetic-antiinflammatory drugs.
# [3] = oral, 7 daily doses, rats, effective dose for 50% decrease from control paw volume, read from dose-response line by inspection
# [4] = oral, mice, effective analgesic dose for 50% of the mice, moving average method
SMILES,ED50 ([1]; po),ED50 ([2]; po),"Adjuvant Arthritis, percent reduction in paw volume at the indicated dose ([1]; oral, 7 daily doses, rats)","ED50 [1, 3]","ED50 [2, 4]"
"CC(=O)Oc1ccccc1C(=O)O [Aspirin, reference compound]",305 mg/kg,135 mg/kg,,,
"C[Si](C)(C)c1cc(-c2ccc(F)cc2)c(-c2ccc(F)cc2)o1 [Example 1, 4,5-bis(4-Fluorophenyl)-2-trimethylsilylfuran]",,39 mg/kg,32%,,
"COc1ccc(-c2cc([Si](C)(C)C)oc2-c2ccc(OC)cc2)cc1 [Example 2, 4,5-bis(4-Methoxyphenyl)-2-trimethylsilylfuran]",2.5 mg/kg,2.3 mg/kg,,,
"C[Si](C)(C)c1cc(-c2ccccc2)c(-c2ccccc2)o1 [Example 3, 4,5-Diphenyl-2-trimethylsilylfuran]",,94 mg/kg,24%,,
"CSc1ccc(-c2cc([Si](C)(C)C)oc2-c2ccc(F)cc2)cc1 [Example 4, 5-(4-Fluorophenyl)-4-(4-methylthiophenyl)-2-trimethylsilylfuran]",> 27 mg/kg,> 135 mg/kg,,,
"Cc1ccc(-c2cc([Si](C)(C)C)oc2-c2ccc(Cl)cc2)cc1 [Example 5, 5-(4-Chlorophenyl)-4-(4-methylphenyl)-2-trimethylsilylfuran]",,> 135 mg/kg,15%,,
"CC(C)Cc1ccc(C(C)C(=O)O)cc1 (stereo not drawn) [Ibuprofen, reference compound]",,,,100 mg/kg,10 mg/kg
"COc1ccc2c(c1)c(CC(=O)O)c(C)n2C(=O)c1ccc(Cl)cc1 [Indomethacin, reference compound]",0.3 mg/kg,0.35 mg/kg,,,
"CCCCC1C(=O)N(c2ccccc2)N(c2ccccc2)C1=O [Phenylbutazone, reference compound]",,,,10 mg/kg,80 mg/kg
